Data taken from ChEMBL document CHEMBL5244272 (Eur J Med Chem, 2021).

Columns and labels:
Format in all cases: functional, organism-based
Plasmodium falciparum [1] = experiment: Antimalarial activity against Plasmodium falciparum K1; conditions: for EC50: read-out: EC50
Plasmodium falciparum [2] = experiment: Antimalarial activity against Plasmodium falciparum 3D7
Plasmodium falciparum [3] = experiment: Antimalarial activity against Plasmodium falciparum D6
Plasmodium falciparum [4] = experiment: Antimalarial activity against Plasmodium falciparum W2

SMILES	IC50 (Plasmodium falciparum [2])	IC50 (Plasmodium falciparum [3])	IC50 (Plasmodium falciparum [4])	other results
C[C@@H]1CC[C@H]2[C@@H](C)C(=O)N(C(=O)c3ccc([N+](=O)[O-])cc3)[C@@H]3O[C@]4(C)CC[C@@H]1[C@@]23OO4	0.45 ng/mL			IC50 (Plasmodium falciparum [1]): 0.6 ng/mL
C[C@H]1[C@H](Nc2ccc(Br)cc2)O[C@@H]2O[C@]3(C)CC[C@H]4[C@H](C)CC[C@@H]1[C@@]24OO3		0.23 ng/mL	0.23 ng/mL	
CCCCNC(=O)CCC(C)[C@H]1CCC2C3C(C[C@H](OC(C)=O)[C@@]21C)[C@@]1(C)CC[C@]2(C[C@@H]1C[C@H]3OC(C)=O)OO[C@@]1(CC[C@]3(C)C4C[C@H](OC(C)=O)[C@@]5(C)C(CC[C@@H]5C(C)CCC(=O)NCCCC)C4[C@H](OC(C)=O)C[C@H]3C1)OO2 (some centres not stated)		20.1 nM		
C[C@H]1[C@@H](O[C@H](CCC(=O)O)c2ccc(Br)cc2)O[C@@H]2O[C@]3(C)CC[C@H]4[C@H](C)CC[C@@H]1[C@@]24OO3		0.405 ng/mL	0.313 ng/mL	
C[C@@H]1CC[C@H]2[C@@H](C)C(=O)N(C(=O)Cc3ccc([N+](=O)[O-])cc3)[C@@H]3O[C@]4(C)CC[C@@H]1[C@@]23OO4	0.6 ng/mL			IC50 (Plasmodium falciparum [1]): 0.4 ng/mL
C[C@H]1[C@@H](OCc2ccc(C(=O)O)cc2)O[C@@H]2O[C@@]3(C)CC[C@H]4[C@H](C)CC[C@@H]1[C@@]24OO3		4.07 ng/mL	1.38 ng/mL	
C[C@@H]1CC[C@H]2[C@H](C[C@@]3(CCCCCC[C@]4(C[C@@H]5C(=O)O[C@@H]6O[C@]7(C)CC[C@H]8[C@H](C)CC[C@@H]5[C@@]68OO7)C(=O)O[C@@H]5O[C@]6(C)CC[C@H]7[C@H](C)CC[C@@H]4[C@@]57OO6)C(=O)O[C@@H]4O[C@]5(C)CC[C@H]6[C@H](C)CC[C@@H]3[C@@]46OO5)C(=O)O[C@@H]3O[C@]4(C)CC[C@@H]1[C@]32OO4				EC50 (Plasmodium falciparum [1]): 20 nM
C[C@@H]1CC[C@H]2[C@@H](C)C(=O)N(S(=O)(=O)c3ccc4ccccc4c3)[C@@H]3O[C@]4(C)CC[C@@H]1[C@@]23OO4	2.8 ng/mL			IC50 (Plasmodium falciparum [1]): 0.2 ng/mL
CC1(C)CCCCC12OOC1(CCCCC1(C)C)OO2 (configuration not stated)		> 1000 nM	> 1000 nM	
C[C@@H]1CCC[C@@H](C)C12OOC1(OO2)[C@@H](C)CCC[C@@H]1C		> 1000 nM	> 1000 nM	
C[C@@H]1CC[C@H]2[C@@H](C)C(=O)N(S(=O)(=O)c3cccc([N+](=O)[O-])c3)[C@@H]3O[C@]4(C)CC[C@@H]1[C@@]23OO4	2.1 ng/mL			IC50 (Plasmodium falciparum [1]): 2.2 ng/mL
C[C@@H]1CC[C@H]2[C@@H](CCCc3cc(F)cc(F)c3)C(=O)O[C@@H]3O[C@]4(C)CC[C@@H]1[C@]32OO4		0.82 ng/mL	6.5 ng/mL	IC50 (Plasmodium falciparum [1]): 3.2 ng/mL
C[C@@H]1CC[C@H]2[C@@H](CCCc3ccc(Cl)cc3)C(=O)O[C@@H]3O[C@]4(C)CC[C@@H]1[C@]32OO4		1.9 ng/mL	2.6 ng/mL	
CCCCCCCC[C@H]1CCC2C3CC[C@H]4C[C@]5(CC[C@]4(C)C3CC[C@@]21C)OO[C@]1(CC[C@@H]2CCC3C4CC[C@H](CCCCCCCC)[C@@]4(C)CCC3[C@@]2(C)C1)OO5 (some centres not stated)		155 nM		
COC(=O)CC[C@@H](C)[C@H]1CCC2C3CC[C@@H]4CC5(CC[C@]4(C)C3C[C@H](OC(C)=O)[C@@]21C)OOC(C)(C)OO5 (some centres not stated)				IC50 (Plasmodium falciparum [1]): 3 nM
C[C@@H]1CC[C@H]2[C@@H](C)C(=O)N(C(=O)c3cccc([N+](=O)[O-])c3)[C@@H]3O[C@]4(C)CC[C@@H]1[C@@]23OO4	0.46 ng/mL			IC50 (Plasmodium falciparum [1]): 0.6 ng/mL
C[C@@H]1CCCCC12OOC1(CCCC[C@@H]1C)OO2 (some centres not stated) [WR-148999]		8.4 nM	7.3 nM	
CCCCCCCCS(=O)(=O)N1C(=O)[C@H](C)[C@@H]2CC[C@@H](C)[C@@H]3CC[C@]4(C)OO[C@]32[C@H]1O4	2.1 ng/mL			IC50 (Plasmodium falciparum [1]): 1.1 ng/mL
C[C@H]1[C@H](Nc2ccc(I)cc2)O[C@@H]2O[C@]3(C)CC[C@H]4[C@H](C)CC[C@@H]1[C@@]24OO3		0.33 ng/mL	0.33 ng/mL	

SMILES	IC50 (Plasmodium falciparum [2])	IC50 (Plasmodium falciparum [3])	IC50 (Plasmodium falciparum [4])	other results
C[C@H]1[C@H](Nc2ccccc2)O[C@@H]2O[C@]3(C)CC[C@H]4[C@H](C)CC[C@@H]1[C@@]24OO3		0.66 ng/mL	0.66 ng/mL	
C=C(c1ccc(F)cc1F)C1COC2(OO1)C1CC3CC(C1)CC2C3 (configuration not stated)	25.7 nM			
C[C@H]1[C@@H](O[C@H](CCC(=O)O)c2ccc(Cl)cc2)O[C@@H]2O[C@]3(C)CC[C@H]4[C@H](C)CC[C@@H]1[C@@]24OO3		0.38 ng/mL	0.357 ng/mL	
CCCCNC(=O)CCC(C)[C@H]1CCC2C3C(C[C@H](OC(C)=O)[C@@]21C)[C@@]1(C)CC[C@]2(C[C@@H]1C[C@H]3OC(C)=O)OO[C@@]1(CC[C@@H]3C[C@@H](OC(C)=O)C4C5CC[C@H](C(C)CCC(=O)NCCCC)[C@@]5(C)[C@@H](OC(C)=O)CC4[C@@]3(C)C1)OO2 (some centres not stated)		9.29 nM		
CS(=O)(=O)N1CCN(CCCOc2ccc(C3CCC4(CC3)OOC3(OO4)C4CC5CC(C4)CC3C5)cc2)CC1 (configuration not stated)	3.7 nM			
C[C@@H]1CC[C@H]2[C@@H](CCCc3ccccc3)C(=O)O[C@@H]3O[C@]4(C)CC[C@@H]1[C@]32OO4		0.9 ng/mL	1.35 ng/mL	
C[C@@H]1CC[C@H]2[C@H](C[C@@]3(CCCCCCC[C@]4(C[C@@H]5C(=O)O[C@@H]6O[C@]7(C)CC[C@H]8[C@H](C)CC[C@@H]5[C@@]68OO7)C(=O)O[C@@H]5O[C@]6(C)CC[C@H]7[C@H](C)CC[C@@H]4[C@@]57OO6)C(=O)O[C@@H]4O[C@]5(C)CC[C@H]6[C@H](C)CC[C@@H]3[C@@]46OO5)C(=O)O[C@@H]3O[C@]4(C)CC[C@@H]1[C@]32OO4				EC50 (Plasmodium falciparum [1]): 5.8 nM
C[C@@H]1CC[C@H]2[C@@H](C)C(=O)N(S(=O)(=O)c3cccc4cccnc34)[C@@H]3O[C@]4(C)CC[C@@H]1[C@@]23OO4	1.9 ng/mL			IC50 (Plasmodium falciparum [1]): 2 ng/mL
C[C@H]1[C@@H](O[C@@H]2O[C@H](CO)[C@@H](O)[C@H](O)[C@H]2O)O[C@@H]2O[C@]3(C)CC[C@H]4[C@H](C)CC[C@@H]1[C@@]24OO3		2.48 ng/mL	0.19 ng/mL	
CS(=O)(=O)N1CCN(CCOc2ccc(C3CCC4(CC3)OOC3(OO4)C4CC5CC(C4)CC3C5)cc2)CC1 (configuration not stated)	3.5 nM			
COC(=O)CC[C@@H](C)[C@H]1CCC2C3CC[C@@H]4CC5(CC[C@]4(C)C3C[C@H](OC(C)=O)[C@@]21C)OOC(C)(C(F)(F)F)OO5 (some centres not stated)				IC50 (Plasmodium falciparum [1]): 7.6 nM
C[C@H]1[C@@H](Nc2cccc(F)c2)O[C@@H]2O[C@]3(C)CC[C@H]4[C@H](C)CC[C@@H]1[C@@]24OO3		< 0.16 ng/mL	< 0.16 ng/mL	
COC(=O)Nc1nc2cc(C(=O)c3ccccc3)ccc2n1C(=O)O[C@H]1O[C@@H]2O[C@]3(C)CC[C@H]4[C@H](C)CC[C@@H]([C@H]1C)[C@@]24OO3	6.86 nM			
C[C@@H]1CC[C@H]2[C@H](C[C@@]3(CCCCCCCC4C(=O)O[C@@H]5O[C@]6(C)CC[C@H]7[C@H](C)CC[C@@H]4[C@@]57OO6)C(=O)O[C@@H]4O[C@]5(C)CC[C@H]6[C@H](C)CC[C@@H]3[C@@]46OO5)C(=O)O[C@@H]3O[C@]4(C)CC[C@@H]1[C@]32OO4 (some centres not stated)				EC50 (Plasmodium falciparum [1]): 3.1 nM
c1cc(C2CCC3(CC2)OOC2(OO3)C3CC4CC(C3)CC2C4)ccc1OCCNC1CCOCC1 (configuration not stated)	0.5 nM			
CC(C)OC[C@H]1O[C@@H](O[C@H]2O[C@@H]3O[C@]4(C)CC[C@H]5[C@H](C)CC[C@@H]([C@H]2C)[C@@]35OO4)[C@H](O)[C@@H](O)[C@@H]1OC(C)C		1.43 ng/mL	0.31 ng/mL	
CCCC[C@H]1O[C@@H]2O[C@]3(C)CC[C@H]4[C@H](C)CC[C@@H]([C@H]1C)[C@@]24OO3		0.41 ng/mL	0.16 ng/mL	
COC(=O)CC(C)CO[C@H]1O[C@@H]2O[C@]3(C)CC[C@H]4[C@H](C)CC[C@@H]([C@H]1C)[C@@]24OO3 (some centres not stated)		1.91 ng/mL	0.48 ng/mL	
